Assays:
pdxS-lacZ fusion = assay: Expression of pdxS-lacZ fusion (β-galactosidase activity); assay type: cell-based, Bacillus subtilis; settings: for β-Galactosidase activity: NH4Cl 10 mM, PL 100 μM, glucose-minimal medium
Description: Construction of transcriptional pdxS-lacZ (yaaD-lacZ) and pdxT-lacZ (yaaE-lacZ) fusions. The 1.35-kb BamHI-EcoRI fragment containing the entire intragenic region between dacA and pdxS, the entire pdxS gene, and the 5′-end of the pdxT gene (FIG. 2), was cut out from the PCR product generated using primers oBB120 and oBB121 and was cloned between the corresponding sites of pHK23 to construct pBB1254 (pdxST-lacZ; FIG. 2). Plasmid pHK23 containing an erythromycin resistance gene was derived from pLG103 [Belitsky et al., 2002, the entire contents of which are hereby incorporated by reference herein]. To construct plasmid pBB1259 with apdxS-lacZ fusion (FIG. 2), a 0.50-kb HindIII-EcoRI fragment containing the 3′-end of the pdxS gene and the 5′-end of thepdxT gene, was cut out of pBB1254, and the plasmid was blunt-ended and religated. To construct plasmid pBB1262 with a pdxT-lacZ fusion (FIG. 2), a 0.43-kb BamHI-BseRI fragment, containing the pdxS promoter and the 5′-part of the pdxS gene, was cut out of pBB1254, and the plasmid was blunt-ended and religated. Strains BB2277, 2279, and 2285 carrying thepdx-lacZ transcriptional fusions integrated at the amyE locus were isolated after transforming strain SMY with pBB1254, 1259, and 1262, respectively, selecting for resistance to erythromycin and screening for loss both of α-amylase production (Amy) and vector sequences as indications of a double crossover, homologous recombination event. The Amy phenotype was assayed using colonies grown overnight on Tryptose Blood Agar Base (Difco)-0.2% starch plates [Fouet, 1990].
Activity of β-galactosidase was determined as described previously [Belitsky, 1995]. Specific activities are expressed in Miller units (1000×OD420/min·ml·OD600) [Miller, 1972].
ApdxS-lacZ transcriptional fusion (plasmid pBB1259; FIG. 2) was constructed as described in Materials and Methods herein, and was integrated at the ectopic amyE locus of the B. subtilis chromosome (strain BB2279).
No effect of addition of excess pyridoxal (up to 1 mM) was observed on expression or on growth rate. Further, a moderate activation of expression (about 3-4-fold) was observed as a result of B6 limitation, for example, by growth of apdxT mutant in LB broth. This effect was not observed or was much less pronounced for the pdxT mutant using LB broth supplemented with excess PL or NH4Cl (FIG. 6), or in a wild type strain. Further, a 2-3-fold decrease in β-galactosidase activity was observed inpdxT mutant cells grown in TSS-glucose mediume with limiting concentrations of ammonium salts, and this decrease in pdxS-lacZ expression was prevented by the presence of PL (Table 5).

[1] = tested on: L. monocytogenes strain BL1 (ΔpdxST::spc); assay: Growth of Listeria monocytogenes ΔpdxST::spc mutant BL1 with B6 vitamers; assay type: cell-based
Description: The resulting plasmid, pBB1212, was introduced into E. coli strain DW1030 containing conjugative plasmid pRK231.7, a broad host range plasmid of the IncP incompatibility group. pBB1212 was transferred from strain DW1030 (pBB1212) into L. monocytogenes cells by conjugation [Trieu-Cuot, 1987] at the temperature (30°) permissive for replication of pBB1212. The ΔpdxST::spc mutants, formed due to allelic exchange resulting from pBB1212 plasmid integration into the chromosome at the non-permissive temperature (41°) and excision at the permissive temperature, were obtained by screening colonies that lost the plasmid marker (chloramphenicol-resistance) and had retained resistance to spectinomycin. Replacement of the chromosomal pdxST locus by the ΔpdxST::spc allele in strain BL1 was confirmed by comparing the sizes of PCR fragments obtained by use of the wild-type and mutant pdxST chromosomal loci as templates.
These traits of the L. monocytogenes mutant are similar to those observed herein with the corresponding B. subtilis mutant.

[2] = tested on: B. subtilis strain BB2267 (ΔpdxS ΔpdxZ::spc); assay: Viability and growth of double pdxS pdxZ null mutant BB2267 with PLP precursors; assay type: cell-based, Bacillus subtilis; settings: for Viability of double mutant pdxS pdxZ (BB2267): DS nutrient broth or glucose-ammonium TSS medium
Description: Double pdxS pdxZ and pdxT pdxZ null mutants, defective both in de novo and salvage pathways of PLP synthesis, were obtained by introducing the pdxZ mutation into the chromosome of the pdxS or pdxT mutant cells by transformation.
Viability of cells of strain BB2295 carrying both pdxS and pdxZ mutations was also obtained in the absence of exogenous pyridoxal in the presence of xylose, by conditionally restoring the de novo pathway of PLP synthesis with a xylose-inducible form of the pdxS gene at an ectopic location, i.e., located elsewhere on the chromosome. These and similarly constructed conditional lethal strains can be used for vaccine development, to overcome possible lethality to the bacteria during culture of cells carrying double pdxS and pdxZ or double pdxT and pdxZ mutations.

[3] = tested on: B. subtilis pdxT mutant (strains BB2256, BB2290); assay: Growth of B. subtilis pdxT (yaaE) null mutant with supplements; assay type: cell-based, Bacillus subtilis
Description: (§1) Bacterial strains, plasmids and culture media. B. subtilis strains were grown at 37° C. in TSS minimal medium with 0.5% glucose as the carbon source and 0.2% glutamate or NH4Cl as nitrogen source, in LB broth [Miller, 1972], or in DS nutrient broth medium [Fouet, 1990]. The same media with addition of agar were used for growth of bacteria on plates. LB broth or LB agar was used for growth of Escherichia coli strains. The following antibiotic concentrations were used as appropriate: chloramphenicol, 2.5 μg/ml; neomycin, 2.5-5 μg/ml; phleomycin, 0.25 μg/ml; spectinomycin, 50 μg/ml; or a combination of erythromycin, 0.5 μg/ml, and lincomycin, 12.5 μg/ml, for B. subtilis strains; ampicillin, 50-100 μg/ml; kanamycin, 25 μg/ml; spectinomycin, 50 μg/ml; or chloramphenicol, 10 μg/ml, for E. coli strains.
A deletion-insertion mutation within the yaaE gene was constructed by replacing a 135-bp SphI-EcoRI fragment of pBB1213 (FIG. 2) with a 1.4-kb SphI-EcoRI ble cassette determining resistance to phleomycin, excised from pJPM136 [Belitsky, 1998]. The orientation of the ble gene in the resulting plasmid pBB1217 (ΔyaaE::ble; FIG. 2) coincided with that of the yaaE gene. Plasmid pBB1217 was introduced into B. subtilis SMY, and Phlr NeoS transformants arising from double crossover homologous recombination events were selected. Replacement of the chromosomal yaaE gene by the ΔyaaE::ble allele in strain BB2256 was confirmed by comparing sizes of PCR fragments from each of the wild-type and the mutant yaaE chromosomal loci.

[4] = tested on: B. subtilis strain BB2253 (ΔpdxS); assay: Growth of B. subtilis pdxS (yaaD) null mutant BB2253 with supplements; assay type: cell-based, Bacillus subtilis
Description: as §1
Construction of yaaD and yaaE null mutants. A deletion mutation within gene yaaD was created by cutting out the 606-bp fragment starting at the AatII site of pBB1181 (FIG. 2) and religating the remaining fragment after filling in its ends (the deletion endpoint, as determined by sequencing, was determined to be beyond the HindIII site, designed for this construct). In the resulting plasmid, pBB1185 (FIG. 2), the deletion was found not to alter the reading frame ofyaaD. pBB1218, a truncated version of pBB1185 (FIG. 2), was introduced by a single-crossover, homologous recombination event into the chromosome of strain SMY, selecting transformants for neomycin resistance. […] After growth of cells of the […] Pdx^− strain in the absence of neomycin, a Neos Pdx^− derivative was isolated. In this strain it was observed that the integrated pBB1218 had been excised from the chromosome and lost. Replacement of the wild-type yaaD gene by the ΔyaaD allele in strain BB2253 and excision of pBB1218 was confirmed by sizing PCR fragments generated from the yaaD locus and by probing for the loss of vector sequences.
Poor ability to utilize PN has been observed for uncharacterized B. subtilis mutants that appeared to require B6 vitamers for growth [Pflug, 1978]. B. subtilis cells apparently lack the pdxH-like gene and the corresponding pyridoxine 5′-phosphate oxidase activity [Pflug, 1983] required for conversion of pyridoxine to PLP.

[5] = tested on: B. subtilis strain BB2279 (wild-type); assay: Growth rate of wild-type B. subtilis strain BB2279 carrying pdxS-lacZ; assay type: cell-based, Bacillus subtilis
Description: as §1
No effect of addition of excess pyridoxal (up to 1 mM) was observed on expression or on growth rate. Further, a moderate activation of expression (about 3-4-fold) was observed as a result of B6 limitation, for example, by growth of apdxT mutant in LB broth. This effect was not observed or was much less pronounced for the pdxT mutant using LB broth supplemented with excess PL or NH4Cl (FIG. 6), or in a wild type strain. […]

[6] = tested on: G. stearothermophilus PdxT-His6 protein
[7] = tested on: Bacillus circulans pdxT mutant; settings: addition of pyridoxine; cited from earlier work
[8] = target: T1, wild-type B. subtilis PdxS protein (Bacillus subtilis, UniProt P37527 2-294); assay: co-purification on a Ni2+-affinity column from E. coli co-expressing both proteins (0.5 M NaCl, 0.4 M imidazole), SDS-PAGE
T1 construct: Co-expressed with PdxT-His6 in E. coli; also called YaaD; unmodified PdxS
T1 sequence (looked up): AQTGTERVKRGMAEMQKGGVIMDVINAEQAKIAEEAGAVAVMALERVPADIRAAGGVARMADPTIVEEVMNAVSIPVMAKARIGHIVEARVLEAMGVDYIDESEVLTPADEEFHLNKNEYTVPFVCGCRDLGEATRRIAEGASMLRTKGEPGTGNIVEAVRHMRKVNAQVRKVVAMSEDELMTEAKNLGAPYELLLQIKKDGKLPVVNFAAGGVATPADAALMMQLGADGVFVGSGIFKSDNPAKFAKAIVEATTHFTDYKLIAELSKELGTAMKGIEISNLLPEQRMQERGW
Description: pBAD derivatives were introduced into E. coli LMG194 (ara⁻) [Guzman, 1995] cells by transformation. The PdxS and/or PdxT proteins were induced in L-broth cultures (A₆₀₀=0.25−0.4) by addition of 0.2% L-arabinose and incubation for four hours. Cells were pelleted, were washed in 50 mM tris-Cl (pH 8.0)-5% glycerol and were disrupted by sonication in modified Novagen binding buffer (20 mM tris-Cl (pH 7.9)-500 mM NaCl-5 mM imidazole-5% glycerol) plus 1 mM phenylmethylsulfonyl fluoride and 0.1% Nonidet P-40. The sonicate was clarified by low speed centrifugation, and the supernatant was purified using a 2 ml Ni²⁺-column (Novagen) as described by the manufacturer. Buffers containing increasing concentrations of imidazole, from 30 mM to 1 M, were initially used for elution, and 485 mM and 385 mM imidazole were found suitable for elution of PdxS and PdxT proteins, respectively.
E. coli strains overproducing each of the wild-type version of the B. subtilis PdxS protein and the His₆-tagged version of PdxT were constructed, and were used for purification of the PdxT-His₆ protein by Ni²⁺-affinity chromatography.

[9] = strain BB2279, up to 1 mM pyridoxal
[10] = isoleucine 500 μg/ml, with or without pyridoxine

Cc1ncc(CO)c(C=O)c1O [pyridoxal]
β-Galactosidase activity (pdxS-lacZ fusion; BB2279 wild-type): 190.4 Miller units | β-Galactosidase activity (pdxS-lacZ fusion; BB2290 pdxT): 142.4 Miller units | Effect of PL on the 2-3-fold decrease in pdxS-lacZ expression in pdxT mutant cells (pdxS-lacZ fusion; TSS-glucose medium, limiting ammonium salts): prevented | Effect of excess pyridoxal on pdxS-lacZ expression (pdxS-lacZ fusion; [9]): No effect | Restoration of growth of strain BL1 ([1]; 1 μM pyridoxal): fully restored | Growth and viability of double mutant pdxS pdxZ ([2]; 1 mM pyridoxal): Growth and viability | Pyridoxal concentration needed by the double mutant relative to that required for full growth of the pdxS mutant ([2]; 1 mM versus 1 μM): 1000 fold | Viability of double mutant pdxS pdxZ (BB2267) ([2]; 1 μM pyridoxal): non-viable | Growth rate ([3]; BB2290 pdxT, NH4Cl 10 mM, PL 100 μM, glucose-minimal medium): 60 min | Growth rate of strain BB2256 in the presence of PL ([3]; minimal and rich media): restored to that of the wild type cell | Growth of B. subtilis ΔpdxS ([4]; FIG. 3A, 0.01 μM pyridoxal): no growth observed | Minimal concentration of pyridoxal supporting growth of B. subtilis ΔpdxS ([4]; FIG. 3A, growth rate a function of PL concentration up to 10 μM): 0.03 µM | Growth defects of strain BB2253 in rich media on addition of pyridoxal ([4]; LB-broth, brain heart infusion medium or DS medium): relieved | Restoration of growth of strain BB2253 ([4]; minimal media, 1 μM pyridoxal): fully restored | Growth rate ([5]; BB2279 wild-type, NH4Cl 10 mM, PL 100 μM, glucose-minimal medium): 60 min | Effect of excess pyridoxal on growth rate [5, 9]: No effect

G. stearothermophilus PdxS containing a His6-tag at its C-terminus
glutaminase activity [6]: It was found that the G. stearothermophilus PdxST complex has glutaminase activity

CC[C@H](C)[C@H](N)C(=O)O [isoleucine]
Effect on growth of the pdxT mutant [3, 10]: No effect | Effect on growth of the pdxS mutant [4, 10]: No effect

Cc1ncc(COP(=O)(O)O)c(C=O)c1O [PLP, Pyridoxal 5′-phosphate]
Growth of strain BB2253 in the presence of PLP [4]: Poor growth

Cc1ncc(CO)c(CN)c1O [Pyridoxamine]
Effectiveness for growth of the mutant compared with pyridoxal ([4]; strain BB2253): several-fold less effective

Cc1ncc(CO)c(CO)c1O [pyridoxine]
Restoration of growth of strain BL1 ([1]; 100 μM pyridoxine): not at all | Viability of double mutant pdxS pdxZ (BB2267) ([2]; 200 μM pyridoxine): non-viable | Remediation of growth defect of B. circulans pdxT mutant [7]: not remediated | Restoration of growth of strain BB2253 ([4]; 200 μM pyridoxine): only partially restored

B1: His6-tagged version of B. subtilis PdxT (enzyme, Bacillus subtilis)
chain: MLTIGVLGLQGAVREHIHAIEACGAAGLVVKRPEQLNEVDGLILPGGESTTMRRLIDTYQFMEPLREFAAQGKPMFGTCAGLIILAKEIAGSDNPHLGLLNVVVERNSFGRQVDSFEADLTIKGLDEPFTGVFIRAPHILEAGENVEVLSEHNGRIVAAKQGQFLGCSFHPELTEDHRVTQLFVEMVEEYKQKALVHHHHHH
notes: Overproduced in E. coli from pBB1252 (with PdxS) or pBB1256 (alone) and purified on a Ni2+ column; also called PdxT-His6; PdxT-H6
binding result [8]: binds
